Results taken from patent US9593305B2, “Differentiation of pluripotent stem cells” (Janssen Biotech, Inc., priority 2008, dated 2017).

System: H1 human embryonic stem cells
Assay: Definitive endoderm formation with GDF family members, SOX17 and cell number (Example 13)
Type: cell-based
Conditions: for SOX17 expression, reagent alone: 20 ng/ml Wnt3a or 2.5 μM compound alone, four days; for SOX17 induction in combination with GDF-8: 2.5 μM compound with 100 ng/ml GDF-8, exceeding activin A/Wnt3a positive control
Protocol: Stock cultures of human embryonic stem cells (H1 human embryonic stem cell line) were maintained in an undifferentiated, pluripotent state on reduced growth factor […]™ (BD Biosciences; Cat #356231)-coated dishes in MEF conditioned medium with passage on average every four days. Passage was performed by exposing cell cultures to a solution of 1 mg/ml dispase (Invitrogen; Cat #17105-041) for 5 to 7 minutes at 37° C. followed by rinsing the monolayer with MEF conditioned culture medium and gentle scraping to recover cell clusters. Clusters were centrifuged at low speed to collect a cell pellet and remove residual dispase. Cell clusters were split at a 1:3 or 1:4 ratio for routine maintenance culture or a 1:1 ratio for immediate assay. All human ES cell lines were maintained at passage numbers less than 50 and routinely evaluated for normal karyotype and absence of mycoplasma.
Cell clusters were evenly resuspended in MEF conditioned medium supplemented with 8 ng/ml bFGF and seeded onto reduced growth factor […]™-coated 96-well Packard VIEWPLATES (PerkinElmer; Cat #6005182) in volumes of 0.1 ml/well. Daily feeding was conducted by aspirating spent culture medium from each well and replacing with an equal volume of fresh medium. Plates were maintained at 37° C., 5% CO2 throughout the duration of assay.
The assay was initiated by aspirating the culture medium from each well and adding back aliquots (100 μl) of test medium. Test conditions were performed in triplicate over a total four-day assay period, feeding on day 1 and day 3 by aspirating and replacing the medium from each well with fresh test medium. Various members of the GDF family of proteins were obtained for testing as follows: GDF-3 (PeproTech; Cat #120-22); GDF-5 (DePuy Orthopaedics, Inc., a Johnson & Johnson company); GDF-8 (R&D Systems; Cat #788-G8); GDF-10 (R&D Systems; Cat #1543-BP); GDF11 (PeproTech; Cat #120-11); GDF-15 (R&D Systems; Cat #957-GD). On the first day of assay, all wells received an aliquot (80 μl) of basal medium DMEM:F12 medium (Invitrogen; Cat #11330-032) supplemented with 0.5% fetal bovine serum (Hyclone; Cat #SH30070.03). A series of five different control or experimental test samples was created to evaluate activin A or various GDFs in combination with Wnt3a or Compound 34 or Compound 56. These test samples were added in 20 μl aliquots (5× concentrated) to appropriately matched assay wells to yield a final assay volume of 100 μl in each well at the final assay conditions indicated. In the first set of control samples, the following conditions were tested: 1) no additive (i.e. no supplementary growth factor or small molecule); 2) 100 ng/ml activin A (PeproTech; Cat #120-14) in combination with 20 ng/ml Wnt3a (R&D Systems; Cat #1324-WN/CF); 3) 20 ng/ml Wnt3a alone; 4) Compound 34 alone (2.5 μM) without any growth factor or small molecule; 5) Compound 56 alone (2.5 μM) without any growth factor or small molecule. In the second set of test samples, the following conditions were tested in combination with 100 ng/ml GDF3: 1) no additive (i.e. GDF-3 alone); 2) 20 ng/ml Wnt3a; 3) 20 ng/ml Wnt3a with Compound 34 (2.5 μM); 4) Compound 34 (2.5 μM); 5) Compound 56 (2.5 μM); and 6) 20 ng/ml Wnt3a with Compound 56 (2.5 μM). In the third set of test samples, each of the six conditions was combined with 100 ng/ml GDF-5. In the fourth set of test samples, each of the six conditions was combined with 100 ng/ml GDF-8. In the fifth set of test samples, each of the six conditions was combined with 100 ng/ml GDF-10. In the sixth set of test samples, each of the six conditions was combined with 100 ng/ml GDF-11. In the seventh set of test samples, each of the six conditions was combined with 100 ng/ml GDF-15. On the third day of assay, all wells for all test samples, received 100 ng/ml Activin A or 100 ng/ml respective GDF growth factor, without Wnt3a or Compound 34 or Compound 56, diluted into DMEM:F12 medium supplemented with 2% FBS. […]

Row | SMILES | SOX17 expression, reagent alone | SOX17 induction in combination with GDF-8
1 | Cc1c[nH]c(-c2cnc(NCCNc3ccc(C#N)cn3)nc2-c2ccc(Cl)cc2Cl)n1 [Compound 56, 6-[(2-{[4-(2,4-Dichlorophenyl)-5-(4-methyl-1H-imidazol-2-yl)pyrimidin-2-yl]amino}ethyl)amino]pyridine-3-carbonitrile] | failed to induce SOX17 expression | robust induction of SOX17
2 | O=C1CCN2CCN(CC2)Cc2cc(Cl)cc(c2)Nc2ncnc(n2)-c2cncc(c2)CCCN1 [Compound 34, 5-Chloro-1,8,10,12,16,22,26,32-octaazapentacyclo[24.2.2.1˜3.7˜0.1˜9,13˜0.1˜14.18˜]tritriaconta-3(33), 4,6,9(32), 10,12,14(31), 15,17-nonaen-23-one] | failed to induce SOX17 expression | robust induction of SOX17
